Measured values from US8013153B2, “Substituted pyrimidine kinase inhibitors” (Janssen Pharmaceutica, N.V., priority 2006, dated 2011).
pIC50: −log10 of the molar value.

What was measured:
[1] = tested on: HeLa cervical adenocarcinoma; test: Inhibition of in vitro cell proliferation (HeLa); assay type: cell-based, human; conditions: Homo sapiens, 14C-thymidine incorporation;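 also: cells exposed to compound for 24 h, then labelled 24 h with methyl 14C-thymidine, with uptake into DNA counted by scintillation against DMSO-only control wells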
murine Aurora-A = molecular target: T1, murine Aurora-A (Mus musculus, UniProt P97477); test: Aurora-A Screening Assay; assay type: biochemical
T1 construct: replaced with the full length protein encoding the murine Aurora-A; made in house; host or cells: sf9 insect cells
T1 sequence (P97477 1-395): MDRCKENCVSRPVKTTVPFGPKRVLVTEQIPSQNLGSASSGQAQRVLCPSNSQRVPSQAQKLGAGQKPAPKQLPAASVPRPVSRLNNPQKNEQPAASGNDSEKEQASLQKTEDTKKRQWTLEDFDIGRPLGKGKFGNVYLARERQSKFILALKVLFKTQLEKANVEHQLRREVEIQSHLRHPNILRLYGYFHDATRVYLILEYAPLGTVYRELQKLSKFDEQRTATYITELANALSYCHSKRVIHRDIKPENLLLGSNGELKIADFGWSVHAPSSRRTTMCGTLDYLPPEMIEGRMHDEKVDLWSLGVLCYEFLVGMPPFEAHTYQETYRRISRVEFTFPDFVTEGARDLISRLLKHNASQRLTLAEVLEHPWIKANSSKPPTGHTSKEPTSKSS

RET cytoplasmic domain = molecular target: T2, RET cytoplasmic domain (Homo sapiens, UniProt P07949); test: RET Kinase Screening Assay; assay type: biochemical
T2 construct: the RET cytoplasmic domain consisting of the last 492 amino acids of the intracellular domain; histidine tag (N); made in house; host or cells: Hi5 insect cells
T2 sequence (P07949 658-1114 limits assumed): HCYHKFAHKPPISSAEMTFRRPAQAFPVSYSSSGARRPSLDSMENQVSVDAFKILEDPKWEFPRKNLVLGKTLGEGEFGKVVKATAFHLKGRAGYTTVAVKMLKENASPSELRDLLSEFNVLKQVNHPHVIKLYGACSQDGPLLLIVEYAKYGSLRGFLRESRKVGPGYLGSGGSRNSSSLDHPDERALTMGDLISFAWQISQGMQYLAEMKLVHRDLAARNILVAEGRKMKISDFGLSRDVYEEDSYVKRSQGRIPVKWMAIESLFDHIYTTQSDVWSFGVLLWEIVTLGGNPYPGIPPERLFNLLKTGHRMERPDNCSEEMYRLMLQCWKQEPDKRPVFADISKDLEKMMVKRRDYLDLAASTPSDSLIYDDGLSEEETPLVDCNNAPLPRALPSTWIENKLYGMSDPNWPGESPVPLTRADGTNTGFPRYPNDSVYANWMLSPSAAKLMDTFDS

HCT-116 colon carcinoma = test: Inhibition of in vitro cell proliferation (HCT116); assay type: cell-based, human; conditions: Homo sapiens, HCT-116, 14C-thymidine incorporation;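 also: cells exposed to compound for 24 h, then 14C-thymidine added for a further 24 h and its uptake into DNA counted by scintillation, DMSO-only wells as control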
CDK1:Cyclin-B = molecular target: T3, CDK1:Cyclin-B (Homo sapiens, UniProt P06493); test: CDK1 Screening Assay; assay type: biochemical
T3 construct: purchased New England Biolabs, Beverly, Mass; 6020; host or cells: insect cells
T3 sequence (P06493 whole entry): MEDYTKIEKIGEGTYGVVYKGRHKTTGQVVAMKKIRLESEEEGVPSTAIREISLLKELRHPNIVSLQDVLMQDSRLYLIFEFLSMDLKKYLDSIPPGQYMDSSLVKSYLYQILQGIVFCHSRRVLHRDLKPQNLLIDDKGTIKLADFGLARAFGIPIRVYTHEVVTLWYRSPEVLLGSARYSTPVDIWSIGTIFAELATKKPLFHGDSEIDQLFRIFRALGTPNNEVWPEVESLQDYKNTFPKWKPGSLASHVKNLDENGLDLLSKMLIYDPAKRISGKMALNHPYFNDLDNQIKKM
T3 sequence (P14635 whole entry partner): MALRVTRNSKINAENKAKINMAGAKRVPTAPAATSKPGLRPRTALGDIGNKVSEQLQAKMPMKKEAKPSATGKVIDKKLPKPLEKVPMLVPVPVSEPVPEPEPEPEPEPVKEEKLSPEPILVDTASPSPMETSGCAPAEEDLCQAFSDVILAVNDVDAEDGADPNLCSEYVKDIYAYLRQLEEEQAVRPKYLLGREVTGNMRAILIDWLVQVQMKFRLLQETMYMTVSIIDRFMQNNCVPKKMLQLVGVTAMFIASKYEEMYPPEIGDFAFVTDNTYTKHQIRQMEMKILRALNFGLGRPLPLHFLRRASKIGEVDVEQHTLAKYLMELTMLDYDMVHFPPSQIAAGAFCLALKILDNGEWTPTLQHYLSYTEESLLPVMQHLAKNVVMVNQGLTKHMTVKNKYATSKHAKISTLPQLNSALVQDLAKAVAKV

A375 malignant melanoma = test: Inhibition of in vitro cell proliferation (A375); assay type: cell-based, human; conditions: Homo sapiens, A-375, 14C-thymidine incorporation;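 also: cells plated for 24 h, given compound for 24 h, then labelled with 14C-thymidine for another 24 h, with DMSO-only wells as control and counts read by scintillation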
HER2 cytoplasmic domain = molecular target: T4, HER2 cytoplasmic domain (Homo sapiens, UniProt P04626); test: HER2 Kinase Screening Assay; assay type: biochemical; conditions: > means no observed 50% inhibition at the indicated test concentration; ~ means approximately 50% inhibition at that concentration
T4 construct: polyhistidine (N)
T4 sequence (P04626 676-1255 limits assumed): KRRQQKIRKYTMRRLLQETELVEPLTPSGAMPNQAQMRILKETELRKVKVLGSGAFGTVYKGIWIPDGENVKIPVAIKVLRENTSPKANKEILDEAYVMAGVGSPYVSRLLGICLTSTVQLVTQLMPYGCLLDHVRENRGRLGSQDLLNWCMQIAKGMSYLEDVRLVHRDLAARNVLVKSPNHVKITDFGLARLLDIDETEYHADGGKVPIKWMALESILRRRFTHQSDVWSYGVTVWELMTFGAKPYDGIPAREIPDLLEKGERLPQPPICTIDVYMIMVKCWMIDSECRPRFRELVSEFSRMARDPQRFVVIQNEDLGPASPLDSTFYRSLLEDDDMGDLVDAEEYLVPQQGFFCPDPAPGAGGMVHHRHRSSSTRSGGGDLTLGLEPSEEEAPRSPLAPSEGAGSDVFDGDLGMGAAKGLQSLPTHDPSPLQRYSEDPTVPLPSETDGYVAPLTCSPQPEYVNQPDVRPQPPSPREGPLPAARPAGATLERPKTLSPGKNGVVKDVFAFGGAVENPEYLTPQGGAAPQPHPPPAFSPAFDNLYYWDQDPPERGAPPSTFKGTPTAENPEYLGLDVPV

[2] = molecular target: T5, rat VEGF-R2 kinase domain (Rattus norvegicus, UniProt O08775); test: VEGF-R2 Screening Assay; assay type: biochemical; conditions: > means no observed 50% inhibition at the indicated test concentration; ~ means approximately 50% inhibition at that concentration; read-out: IC50 VEGF-R2
T5 construct: amino acids 786-1343 of the rat VEGF-R2 kinase domain; polyhistidine (N)
T5 sequence (O08775 786-1343): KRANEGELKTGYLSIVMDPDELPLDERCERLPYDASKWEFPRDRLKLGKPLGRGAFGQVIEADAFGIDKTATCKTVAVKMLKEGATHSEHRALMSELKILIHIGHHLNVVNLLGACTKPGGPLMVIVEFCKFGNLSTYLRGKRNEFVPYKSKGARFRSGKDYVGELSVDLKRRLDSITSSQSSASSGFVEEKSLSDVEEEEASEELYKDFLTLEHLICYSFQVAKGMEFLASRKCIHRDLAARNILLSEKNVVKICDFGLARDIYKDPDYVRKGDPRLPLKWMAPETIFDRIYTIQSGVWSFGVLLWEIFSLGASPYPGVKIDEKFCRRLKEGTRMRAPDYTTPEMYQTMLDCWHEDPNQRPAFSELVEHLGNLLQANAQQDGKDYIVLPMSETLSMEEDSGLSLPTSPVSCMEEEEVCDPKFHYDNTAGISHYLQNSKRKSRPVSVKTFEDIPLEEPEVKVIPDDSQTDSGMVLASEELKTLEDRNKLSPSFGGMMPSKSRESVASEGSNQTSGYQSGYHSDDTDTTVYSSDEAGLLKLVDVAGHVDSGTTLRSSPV

Compound	IC50 [1] [µM]	pIC50 (murine Aurora-A)	pIC50 (RET cytoplasmic domain)	IC50 (HCT-116 colon carcinoma) [µM]	pIC50 (CDK1:Cyclin-B)	IC50 (A375 malignant melanoma) [µM]	pIC50 (HER2 cytoplasmic domain)	pIC50 [2]
CCON=Cc1c(N)ncnc1Oc1ccc2[nH]c(C)cc2c1F [Cpd 1, 4-amino-6-(4-fluoro-2-methyl-1H-indol-5-yloxy)-pyrimidine-5-carbaldehyde O-ethyl-oxime]	0.032	< 4.00	< 4.00	0.036	< 4.00	0.027	< 4.00	–
CON=Cc1c(N)ncnc1Oc1ccc2ncccc2c1 [Cpd 5, 4-amino-6-(quinolin-6-yloxy)-pyrimidine-5-carbaldehyde O-methyl-oxime]	3.43	< 5.00	5.70	2.87	< 4.00	1.82	< 4.00	–
CON=Cc1c(N)ncnc1Oc1ccc2cccnc2c1 [Cpd 6, 4-amino-6-(quinolin-7-yloxy)-pyrimidine-5-carbaldehyde O-methyl-oxime]	1.82	< 4.00	< 5.00	2.62	< 4.00	0.886	< 5.00	–
CON=Cc1c(N)ncnc1Oc1ccc2[nH]ccc2c1F [Cpd 7, 4-amino-6-(4-fluoro-1H-indol-5-yloxy)-pyrimidine-5-carbaldehyde O-methyl-oxime]	0.401	< 4.00	< 7.00	0.365	< 4.00	0.492	6.19	–
CON=Cc1c(N)ncnc1Oc1cc2cc[nH]c2cc1F [Cpd 8, 4-amino-6-(6-fluoro-1H-indol-5-yloxy)-pyrimidine-5-carbaldehyde O-methyl-oxime]	0.382	< 5.00	< 6.00	0.422	< 4.00	0.327	< 6.00	–
CON=Cc1c(N)ncnc1Oc1ccc2[nH]cc(C)c2c1 [Cpd 9, 4-amino-6-(3-methyl-1H-indol-5-yloxy)-pyrimidine-5-carbaldehyde O-methyl-oxime]	0.306	< 5.00	< 4.00	0.385	< 4.00	0.132	6.68	–
CO/N=C/c1c(N)ncnc1Oc1ccc2[nH]ccc2c1 [Cpd 10, 4-amino-6-(1H-indol-5-yloxy)-pyrimidine-5-carbaldehyde O-methyl-oxime]	1.87	< 5.00	5.65	3.52	< 4.00	0.783	6.16	–
CON=Cc1c(N)ncnc1Oc1ccc2c(ccn2C)c1 [Cpd 11, 4-amino-6-(1-methyl-1H-indol-5-yloxy)-pyrimidine-5-carbaldehyde O-methyl-oxime]	0.375	< 4.00	< 4.00	0.749	< 4.00	0.326	< 5.00	–
Cc1cc2c(F)c(Oc3ncnc(N)c3C=NOCCO)ccc2[nH]1 [Cpd 12, 4-amino-6-(4-fluoro-2-methyl-1H-indol-5-yloxy)-pyrimidine-5-carbaldehyde O-(2-hydroxy-ethyl)-oxime]	0.406	~4.00	< 5.00	0.323	< 4.00	0.372	5.02	–
Cc1cc2c(F)c(Oc3ncnc(N)c3C=NOCCN3CCCC3)ccc2[nH]1 [Cpd 13, 4-amino-6-(4-fluoro-2-methyl-1H-indol-5-yloxy)-pyrimidine-5-carbaldehyde O-(2-pyrrolidin-1yl-ethyl)-oxime]	4.22	~4.00	< 4.00	4.61	< 4.00	2.16	< 5.00	–
Cc1cc2c(F)c(Oc3ncnc(N)c3C=NOCCN3CCOCC3)ccc2[nH]1 [Cpd 14, 4-amino-6-(4-fluoro-2-methyl-1H-indol-5-yloxy)-pyrimidine-5-carbaldehyde O-(2-morpholin-4-yl-ethyl)-oxime]	–	< 4.00	< 4.00	–	< 4.00	–	~5.00	–
Cc1cc2c(F)c(Oc3ncnc(N)c3C=NOCCN(C)C)ccc2[nH]1 [Cpd 15, 4-amino-6-(4-fluoro-2-methyl-1H-indol-5-yloxy)-pyrimidine-5-carbaldehyde O-(2-dimethylamino-ethyl)-oxime]	–	< 4.00	< 4.00	–	< 4.00	–	4.44	–
CNCCON=Cc1c(N)ncnc1Oc1ccc2[nH]c(C)cc2c1F [Cpd 16, 4-amino-6-(4-fluoro-2-methyl-1H-indol-5-yloxy)-pyrimidine-5-carbaldehyde O-(2-methylamino-ethyl)-oxime]	2.01	< 4.00	< 4.00	3.04	< 4.00	0.345	4.96	–
C#CCON=Cc1c(N)ncnc1Oc1ccc2[nH]c(C)cc2c1F [Cpd 30, 4-amino-6-(4-fluoro-2-methyl-1H-indol-5-yloxy)-pyrimidine-5-carbaldehyde O-prop-2-ynyl-oxime]	–	< 4.00	~5.00	–	< 4.00	–	< 5.00	–
CON=Cc1c(N)ncnc1Oc1ccc(NC(=O)Nc2nc(C)c(C)s2)c(Cl)c1 [Cpd 92, 1-{4-[6-amino-5-(methoxyimino-methyl)-pyrimidin-4-yloxy]-2-chloro-phenyl}-3-(4,5-dimethyl-thiazol-2-yl)-urea]	23.4	< 4.00	–	16.9	< 4.00	6.92	< 6.00	8.70
CON=Cc1c(N)ncnc1Oc1ccc(NC(=O)Nc2cc(C)on2)c(Cl)c1 [Cpd 93, 1-{4-[6-amino-5-(methoxyimino-methyl)-pyrimidin-4-yloxy]-2-chloro-phenyl}-3-(5-methyl-isoxazol-3-yl)-urea]	10	< 4.00	–	3.12	< 4.00	2.12	< 5.00	8.70
CON=Cc1c(N)ncnc1Oc1ccc(NC(C)=O)c(Cl)c1 [Cpd 94, N-{4-[6-amino-5-(methoxyimino-methyl)-pyrimidin-4-yloxy]-2-chloro-phenyl}-acetamide]	4.02	< 4.00	–	3.62	< 4.00	2.69	< 4.00	5.66
CON=Cc1c(N)ncnc1Oc1ccc(NC(=O)OC)c(Cl)c1 [Cpd 95, {4-[6-amino-5-(methoxyimino-methyl)-pyrimidin-4-yloxy]-2-chloro-phenyl}-carbamic acid methyl ester]	4.95	< 4.00	–	3.77	< 4.00	3.5	< 5.00	6.82
CON=Cc1c(N)ncnc1Oc1ccc(CC(=O)Nc2ccccc2)cc1 [Cpd 97, 2-{4-[6-amino-5-(methoxyimino-methyl)-pyrimidin-4-yloxy]-phenyl}-N-phenyl-acetamide]	> 10	< 4.00	–	> 10	< 4.00	> 10	5.88	7.39
CON=Cc1c(N)ncnc1Oc1ccc(CC(=O)Nc2ccc(C)cc2)cc1 [Cpd 99, 2-{4-[6-amino-5-(methoxyimino-methyl)-pyrimidin-4-yloxy]-phenyl}-N-p-tolyl-acetamide]	> 100	< 4.00	–	> 100	< 4.00	> 100	6.66	8.10
CON=Cc1c(N)ncnc1Oc1ccc(OCc2ccccc2)cc1 [Cpd 110, 4-amino-6-[4-(benzyloxy)phenoxy]-5-pyrimidinecarboxaldehyde O-methyloxime]	> 100	< 4.00	–	> 100	< 4.00	> 100	6.26	~6.00
